Data reported in ChEMBL document CHEMBL3301361, “Experimental in vitro DMPK and physicochemical data on a set of publicly disclosed compounds”.
Converted amounts (≈) assume the structure as drawn.

Legend:
[1] = physchem; conditions: pH 7.4 buffer
[2] = in vitro; conditions: SD, HW or BN, rat, plasma
[3] = physchem; conditions: octan-1-ol/water
[4] = in vitro; conditions: human, plasma

SMILES | fraction unbound at 5 h [2] | logD ([3]; pH 7.4, LogD7.4) | also measured
CC(C)(C)OC(=O)N1CCC(OCc2nc(-c3ccncc3)no2)CC1 | 0.0752 | 3 | solubility thermodynamic [1]: 269 µM (≈ 97 µg/mL)
NCCCCN(Cc1nc2ccccc2[nH]1)C1CCCc2cccnc21 (stereo not drawn) | 0.371 | 0.83 | –
O=[N+]([O-])c1c(Nc2ccc(-n3cncn3)cc2)ncnc1N1CCC(Sc2ccccn2)CC1 | 0.0029 | – | –
COCCNCC(=O)NC12CC3CC(CC(C3)C1)C2 | 0.483 | – | fraction unbound at 5 h ([4]; PPB): 0.5
O=C(Nc1cccc(Cl)c1)Nc1nnc(-c2ccncc2)s1 | 0.0046 | – | –
Cc1cccc2cc(CN(Cc3ccco3)C(=O)Nc3cccc(C#N)c3)c(Cl)nc12 | 0.0009 | – | –
Cc1csc2c(N3CCN(C(=O)c4ccc(C(C)(C)C)cc4)CC3)ncnc12 | 0.0043 | – | –
Fc1ccc(-c2cc(C(F)(F)F)nc(-n3cc(Cl)cn3)n2)cc1 | 0.0048 | – | –
Cc1ccc(S(=O)(=O)Nc2ccc3nc(C)sc3c2)cc1 | 0.0053 | – | fraction unbound at 5 h [4]: 0.0021
Cc1nc2ccc(NS(=O)(=O)c3ccc(C)c(C)c3)cc2s1 | 0.0024 | – | –
Cc1ccc(S(=O)(=O)N(C)c2ccc3sc(C)nc3c2)cc1 | 0.0067 | – | –
CC(C)(C)OC(=O)NC[C@H]1CC[C@H](CNC(=O)c2cc(-c3ccc(CN)cc3)nc3ccccc23)CC1 | 0.0139 | – | –
CC(O)(C(=O)Nc1ccc(S(=O)(=O)N2CCOCC2)cc1)C(F)(F)F (stereo not drawn) | 0.151 | – | fraction unbound at 5 h ([4]; PPB): 0.371
CCOc1ccc2oc(C(=O)NC(CCSC)c3nc4ccccc4[nH]3)c(C)c2c1 (stereo not drawn) | 0.009 | – | –
C[C@H](Nc1nc(Nc2cc(C3CC3)[nH]n2)c(F)cc1C#N)c1ccc(F)cc1 | 0.002 | – | –
O=c1[nH]c2c(O)ccc([C@@H](O)CNCCCOCCOCCc3ccccc3)c2s1 | 0.465 | 1.09 | –
CC(C)(C)OC(=O)NC[C@H]1CC[C@H](CNC(=O)c2ccnc(-c3ccccc3)c2)CC1 | 0.0095 | – | –
CC(C)(C)OC(=O)NC[C@H]1CC[C@H](CNC(=O)c2cc(-c3cccc(CN)c3)nc3ccccc23)CC1 | 0.0171 | – | –
CC(C)(C)[C@@H](O)C(=O)N1CCC[C@H]1C(=O)NCc1cc(Cl)ccc1CN | 0.5 | – | fraction unbound at 5 h ([4]; PPB): 0.58
Nc1nc(-c2nn(Cc3ccccc3F)c3ncccc23)nc(N)c1N1CCOCC1 | 0.117 | – | fraction unbound at 5 h [4]: 0.0768
C[C@@H]1c2c([nH]c3ccc(C(F)(F)F)cc23)C[C@@H]2CCN(CCN3CCOCC3)C[C@H]21 | 0.0313 | 2.87 | –
O=C(c1ccc(-c2ccc(Cl)cc2)o1)N(Cc1ccccn1)c1ccc(N2CCNCC2)cc1 | 0.0219 | 3 | –
COCCNCc1cccc(CCNC[C@H](O)c2ccc(O)c3[nH]c(=O)sc23)c1 | 0.197 | 0.01 | –

SMILES | fraction unbound at 5 h [2] | logD ([3]; pH 7.4, LogD7.4) | also measured
CN(C(=O)Cc1ccc(S(C)(=O)=O)cc1)C1CCN(Cc2ccc(C(F)(F)F)cc2)CC1 | 0.16 | – | solubility thermodynamic [1]: 363 µM (≈ 170 µg/mL)
Nc1nc2ccc(C(=O)c3ccccc3)cc2[nH]1 | 0.0736 | 2.29 | –
Cc1ccc(NC(=O)c2cccc(N3CCOCC3)c2)cc1-n1cnc2ccc(N3CCN(C)CC3)cc2c1=O | 0.103 | 2.69 | solubility thermodynamic [1]: 427 µM (≈ 230 µg/mL)
CN(Cc1ccc(-c2ccccc2S(N)(=O)=O)cc1)C(=O)[C@@H]1CCC[C@H]1C(=O)NCc1ccc(OC(F)(F)F)cc1 | 0.003 | – | –
COC[C@H](C)Oc1cc(O[C@@H](C)Cc2ccccc2)cc(C(=O)Nc2ccc(C(=O)O)cn2)c1 | 0.0042 | 1.5 | solubility thermodynamic [1]: 1480 µM (≈ 687 µg/mL)
COc1cc(-n2cnc3cc(-c4ccc(Cl)cc4)sc3c2=O)ccc1OCCN1CCCC1 | 0.0099 | 2.74 | –
Cc1c(-c2cc3ccccc3o2)oc(=O)c(C)c1O | 0.0026 | – | –
C[S+]([O-])Cc1ccc(C(=O)Nc2cccnc2C(=O)NCC2CCC2)c2ccccc12 (stereo not drawn) | 0.0119 | – | fraction unbound at 5 h [4]: 0.013
COc1ccc(NC(=O)c2ccc(C[S+](C)[O-])c3ccccc23)c(C(=O)NCC2CCOCC2)n1 (stereo not drawn) | 0.0437 | – | fraction unbound at 5 h [4]: 0.0544
COc1ccc(NC(=O)c2ccnc3ccccc23)c(C(=O)NCC2CCC2)n1 | 0.0009 | – | –
CC(=O)N1CCN(c2nc(N[C@H](C)c3cnc4ccccc4c3)c3c(n2)C(=O)N(C(C)C)C3)CC1 | 0.0119 | – | –
O=S(=O)(Nc1ncns1)c1cc(F)c(Oc2cc(F)c(Cl)cc2-c2cn[nH]c2)cc1F | 0.002 | – | –
O=S(=O)(Nc1ncns1)c1cc(F)c(Oc2ccc(Cl)cc2-c2cn[nH]c2)cc1F | 0.001 | – | –
N#Cc1ccc2[nH]c(-c3ccc(F)cc3)c(CCCC(=O)NS(=O)(=O)C(F)(F)F)c2c1 | 0.0661 | – | solubility thermodynamic [1]: 309 µM (≈ 140 µg/mL)
O=[N+]([O-])c1ccc(-c2nc(-c3ccccc3)c(-c3ccccc3)[nH]2)cc1 | 0.0006 | – | –
C=CCN(C)CCCCCCOc1ccc(C(=O)c2ccc(Br)cc2)c(F)c1 | 0.0006 | – | –
N=C(N)c1ccc2nc(-c3cccc(-c4ccccc4)c3O)[nH]c2c1 | 0.0139 | – | –
O=C(Nc1ccccc1)Nc1nc(-c2ccccc2)cs1 | 0.0005 | – | –
O=C(c1cc(Cc2n[nH]c(=O)c3ccccc23)ccc1F)N1CCCNCC1 | 0.597 | 0.1 | –
COc1cc2c(cc1OC)CN(CCc1ccc(NC(=O)c3cccc4c(=O)c5cccc(OC)c5[nH]c34)cc1)CC2 | 0.0179 | – | –
O=C(COc1cccc(Cl)c1)NC1CN(Cc2ccn(-c3ccc(C(F)(F)F)cc3)c2)C1 | 0.0043 | – | –
O=C(CC1CCCCCC1)Nc1cccc2c(=O)n([C@H]3CCNC3)ccc12 | 0.232 | 1.15 | –
O=C(Cc1ccc(F)c(C(F)(F)F)c1)Nc1cccc2c(=O)n([C@@H]3CNC[C@H]3O)ccc12 | 0.0948 | 1.33 | –

SMILES | fraction unbound at 5 h [2] | logD ([3]; pH 7.4, LogD7.4) | also measured
C[C@@](O)(C(=O)Nc1ccc(S(C)(=O)=O)cc1Cl)C(F)(F)F | 0.16 | 2.08 | –
COc1ccc(CN2CCc3c([nH]c4ccccc34)C2)cc1OC | 0.0418 | 3.1 | solubility thermodynamic [1]: 51.3 µM (≈ 16.5 µg/mL)
O=C(O)c1cc(O)cc(O)c1 [3,5-DIHYDROXYBENZOIC ACID] | 0.824 | – | –
COc1cc(F)c(C(C)C)cc1-c1ccc(C(F)(F)F)cc1CN1C(=O)O[C@H](c2cc(C(F)(F)F)cc(C(F)(F)F)c2)[C@@H]1C [ANACETRAPIB] | 0.0328 | – | –
C[C@@H](O[C@H]1OCCN(Cc2n[nH]c(=O)[nH]2)[C@H]1c1ccc(F)cc1)c1cc(C(F)(F)F)cc(C(F)(F)F)c1 [APREPITANT] | 0.0023 | – | –
CNC(=O)c1ccc(Oc2ccc3c(c2)CCN(C2CCC2)CC3)nc1 [GSK189254] | 0.523 | 1.45 | –
O=C(O)CCc1ccc(NCc2cccc(Oc3ccccc3)c2)cc1 [GW9508] | 0.0052 | 2.1 | –
O=C(O)Cc1cn(-c2ccccc2)nc1-c1ccc(Cl)cc1 [LONAZOLAC] | 0.0018 | – | –
CN1CCC(N2CCN(C(=O)[C@H](NC(=O)c3ccc4cc[nH]c4c3)c3ccccc3)CC2)CC1 [LY-517717] | 0.54 | – | –
NCCCCN(Cc1nc2ccccc2[nH]1)[C@H]1CCCc2cccnc21 [MAVORIXAFOR] | 0.244 | – | –
COc1nc(C)nc(Cl)c1N=C1NCCN1 [MOXONIDINE] | 0.886 | – | –
O=S(=O)(Nc1nncs1)c1cc(Cl)c(Oc2ccc(C(F)(F)F)cc2-c2ccnnc2)cc1F [PF-05186462] | 0.02 | 1.15 | –
O=c1[nH]c2ccccc2n1C1CCN(CCCC(c2ccc(F)cc2)c2ccc(F)cc2)CC1 [PIMOZIDE] | 0.003 | – | –
CC(C)NCC(O)COc1cccc2[nH]ccc12 (stereo not drawn) [PINDOLOL] | 0.586 | – | logD ([3]; pH 7.4): -0.12
CC(C)C[C@H](CN)CC(=O)O [PREGABALIN] | 0.5 | – | –
CC(CN1c2ccccc2Sc2ccccc21)N(C)C (stereo not drawn) [PROMETHAZINE] | 0.0705 | 2.67 | –
COc1ccccc1OCC(O)CN1CCN(CC(=O)Nc2c(C)cccc2C)CC1 (stereo not drawn) [RANOLAZINE] | 0.465 | – | –
CC[C@H](NC(=O)c1c(O)c(-c2ccccc2)nc2ccccc12)c1ccccc1 [TALNETANT] | 0.0005 | 3.91 | –
CCC(C)(C)C(=O)O[C@H]1C[C@@H](C)C=C2C=C[C@H](C)[C@H](CC[C@@H](O)C[C@@H](O)CC(=O)O)[C@H]21 [TENIVASTATIN] | 0.024 | 1.55 | –
CCc1nn(C2CCCC2)c2c1CCn1c(-c3cccs3)nnc1-2 [TOFIMILAST] | 0.0477 | – | solubility thermodynamic [1]: 22.4 µM (≈ 7.6 µg/mL)
Cc1ccc(OCC(O)C(C)NC(C)C)c2c1CCC2 (stereo not drawn) [ZENIDOLOL] | 0.216 | – | –
